{"source": "patent US20120245161A1", "about": "(SANOFI, priority 2009, published 2012)", "note": "Where a name gives a salt, the structure may show the parent alone.", "data": [{"target": "T1, recombinant human beta tryptase (Homo sapiens, UniProt P20231)", "T1 construct": "made in house; host or cells: yeast cells", "T1 sequence (P20231 31-275)": "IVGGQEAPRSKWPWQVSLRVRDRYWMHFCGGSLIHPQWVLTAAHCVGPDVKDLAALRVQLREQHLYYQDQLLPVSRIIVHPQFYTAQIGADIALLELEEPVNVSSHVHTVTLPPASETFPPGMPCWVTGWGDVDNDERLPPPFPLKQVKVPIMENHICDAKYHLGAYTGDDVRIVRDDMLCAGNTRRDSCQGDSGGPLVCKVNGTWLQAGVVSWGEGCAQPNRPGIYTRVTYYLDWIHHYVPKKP", "assay": "beta-Tryptase inhibition, chromogenic enzyme assay (substrate S2366, read at 405 nm)", "type": "biochemical", "settings": "Ki calculated from IC50: Ki=IC50/(1+[Substrate]/Km); 0.5 mM substrate, room temperature; read-out: Tryptase Ki", "text": "(§1) Inhibition of this catalytic activity may be measured by the in vitro enzyme assay and the cellular assay.\n(§2) Tryptase inhibition activity is confirmed using either isolated human lung tryptase or recombinant human beta tryptase expressed in yeast cells. Essentially equivalent results are obtained using isolated native enzyme or the expressed enzyme. The assay procedure employs a 96 well microplate (Costar 3590) using L-pyroglutamyl-L-prolyl-L-arginine-para-nitroanilide (S2366: Quadratech) as substrate (essentially as described by McEuen et. al. Biochem Pharm, 1996, 52, pages 331-340). Assays are performed at room temperature using 0.5 mM substrate (2×Km) and the microplate is read on a microplate reader (Beckman Biomek Plate reader) at 405 nm wavelength.\n(§3) Materials and Methods for Tryptase primary screen (Chromogenic assay)\n(§4) S2366 (Stock solutions of 2.5 mM).\n(§5) Purified recombinant beta Tryptase Stocks of 310 μg/mL. Protocol (Single point determination) • Add 60 μL of diluted substrate (final concentration of 500 μM in assay buffer) to each well • Add compound in duplicates, final concentration of 20 volume 20 • Add enzyme at a final concentration of 50 ng/mL in a volume of 20 • Total volume for each well is 100 • Agitate briefly to mix and incubate at room temp in the dark for 30 minutes • Read absorbencies at […] Each plate has the following controls: • Totals: 60 μL of substrate, 20 μL of buffer (with 0.2% final concentration of DMSO), • 20 μL of enzyme Non-specific: 60 μL of substrate, 40 μL of buffer (with 0.2% DMSO) Totals: 60 μL of substrate, 20 μL of buffer (No DMSO), 20 μL of enzyme Non-specific: 60 μL of substrate, 40 μL of buffer (No DMSO) Protocol (IC50 and Ki determination)\n(§6) The protocol is essentially the same as above except that the compound is added in duplicates at the following final concentrations: 0.01, 0.03, 0.1, 0.3, 1, 3, 10 μM (All dilutions carried out manually). For every assay, whether single point or IC50 determination, a standard compound is used to derive IC50 for comparison. From the IC50 value, the Ki can be calculated using the following formula: Ki=IC50/(1+[Substrate]/Km).", "units": {"Ki": "nM"}, "values": [{"compound": "COCCn1cc(C(=O)N2CCC(c3cc(CN)ccc3F)CC2)c2c(-c3ccncc3)cccc21", "note": "[Example 56, [4-(5-Aminomethyl-2-fluoro-phenyl)-piperidin-1-yl]-[1-(2-methoxy-ethyl)-4-pyridin-4-yl-1H-indol-3-yl]-methanone]", "Ki": 9}, {"compound": "COCCn1cc(C(=O)N2CCC(c3cc(CN)ccc3F)CC2)c2c(-c3cncnc3)cccc21", "note": "[Example 61, [4-(5-Aminomethyl-2-fluoro-phenyl)-piperidin-1-yl]-[1-(2-methoxy-ethyl)-4-pyrimidin-5-yl-1H-indol-3-yl]-methanone dihydrochloride]", "Ki": 17}, {"compound": "Cc1cccc2c(C(=O)N3CCC(c4cc(CN)ccc4F)CC3)cn(CCn3ccnc3)c12", "note": "[Example 62, [4-(5-Aminomethyl-2-fluoro-phenyl)-piperidin-1-yl]-[1-(2-imidazol-1-yl-ethyl)-7-methyl-1H-indol-3-yl]-methanone dihydrochloride]", "Ki": 22}, {"compound": "COCCn1cc(C(=O)N2CCC(c3cc(CN)ccc3F)CC2)c2c(-c3cncc(Cl)c3)cccc21", "note": "[Example 65, [4-(5-Aminomethyl-2-fluoro-phenyl)-piperidin-1-yl]-[4-(5-chloro-pyridin-3-yl)-1-(2-methoxy-ethyl)-1H-indol-3-yl]-methanone dihydrochloride]", "Ki": 11}, {"compound": "COCCn1cc(C(=O)N2CCC(c3cc(CN)ccc3F)CC2)c2c(-c3cccnc3)cccc21", "note": "[Example 73, [4-(5-Aminomethyl-2-fluoro-phenyl)-piperidin-1-yl]-[1-(2-methoxy-ethyl)-4-pyridin-3-yl-1H-indol-3-yl]-methanone dihydrochloride]", "Ki": 7}, {"compound": "COCCn1cc(C(=O)N2CCC(c3cc(CN)ccc3F)CC2)c2c(-c3ccccn3)cccc21", "note": "[Example 74, [4-(5-Aminomethyl-2-fluoro-phenyl)-piperidin-1-yl]-[1-(2-methoxy-ethyl)-4-pyridin-2-yl-1H-indol-3-yl]-methanone dihydrochloride]", "Ki": 26}]}, {"target": "T1, recombinant human beta tryptase", "assay": "beta-Tryptase inhibition, chromogenic enzyme assay (substrate S2366, read at 405 nm)", "type": "biochemical", "settings": "Tryptase Ki (nM), Ki calculated from IC50: Ki=IC50/(1+[Substrate]/Km); 0.5 mM substrate, room temperature", "text": "as §1, §2, §3, §4, §5, §6", "units": {"Ki": "nM"}, "values": [{"compound": "COCCn1cc(C(=O)N2CCC(c3cc(CN)ccc3F)CC2)c2c(C3CC3)cccc21", "note": "[Example 52, [4-(5-Aminomethyl-2-fluoro-phenyl)-piperidin-1-yl]-[4-cyclopropyl-1-(2-methoxy-ethyl)-1H-indol-3-yl]-methanone hydrochloride]", "Ki": 49}, {"compound": "COCCn1cc(C(=O)N2CCC(c3cc(CN)ccc3F)CC2)c2c(C(F)(F)F)cccc21", "note": "[Example 53, [4-(5-Aminomethyl-2-fluoro-phenyl)-piperidin-1-yl]-[1-(2-methoxy-ethyl)-4-trifluoromethyl-1H-indol-3-yl]-methanone hydrochloride]", "Ki": 289}, {"compound": "COCCn1cc(C(=O)N2CCC(c3cc(CN)ccc3F)CC2)c2c(OC(F)(F)F)cccc21", "note": "[Example 54, [4-(5-Aminomethyl-2-fluoro-phenyl)-piperidin-1-yl]-[1-(2-methoxy-ethyl)-4-trifluoromethoxy-1H-indol-3-yl]-methanone hydrochloride]", "Ki": 96}, {"compound": "COCCn1cc(C(=O)N2CCC(c3cc(CN)ccc3F)CC2)c2c(CCC(C)(C)O)cccc21", "note": "[Example 55, [4-(5-Aminomethyl-2-fluoro-phenyl)-piperidin-1-yl]-[4-(3-hydroxy-3-methyl-butyl)-1-(2-methoxy-ethyl)-1H-indol-3-yl]-methanone hydrochloride]", "Ki": 72}, {"compound": "CCOc1cccc2c1c(C(=O)N1CCC(c3cc(CN)ccc3F)CC1)cn2CCOC", "note": "[Example 57, [4-(5-Aminomethyl-2-fluoro-phenyl)-piperidin-1-yl]-[4-ethoxy-1-(2-methoxy-ethyl)-1H-indol-3-yl]-methanone hydrochloride]", "Ki": 54}, {"compound": "COCCn1cc(C(=O)N2CCC(c3cc(CN)ccc3F)CC2)c2c(OC3CC3)cccc21", "note": "[Example 58, [4-(5-Aminomethyl-2-fluoro-phenyl)-piperidin-1-yl]-[4-cyclopropoxy-1-(2-methoxy-ethyl)-1H-indol-3-yl]-methanone hydrochloride]", "Ki": 108}, {"compound": "COCCn1cc(C(=O)N2CCC(c3cc(CN)ccc3F)CC2)c2c(-c3ccccc3)cccc21", "note": "[Example 60, [4-(5-Aminomethyl-2-fluoro-phenyl)-piperidin-1-yl]-[1-(2-methoxy-ethyl)-4-phenyl-1H-indol-3-yl]-methanone hydrochloride]", "Ki": 22}, {"compound": "COCCn1cc(C(=O)N2CCC(c3cc(CN)ccc3F)CC2)c2c(-c3cccc(F)c3)cccc21", "note": "[Example 63, [4-(5-Aminomethyl-2-fluoro-phenyl)-piperidin-1-yl]-[4-(3-fluoro-phenyl)-1-(2-methoxyethyl)-1H-indol-3-yl]-methanone hydrochloride]", "Ki": 46}, {"compound": "COCCn1cc(C(=O)N2CCC(c3cc(CN)ccc3F)CC2)c2c(-c3cccs3)cccc21", "note": "[Example 64, [4-(5-Aminomethyl-2-fluoro-phenyl)-piperidin-1-yl]-[1-(2-methoxy-ethyl)-4-thiophen-2-yl-1H-indol-3-yl]-methanone hydrochloride]", "Ki": 39}, {"compound": "COCCn1cc(C(=O)N2CCC(c3cc(CN)ccc3F)CC2)c2c(-c3cc(Cl)cc(Cl)c3)cccc21", "note": "[Example 66, 4-(5-Aminomethyl-2-fluoro-phenyl)-piperidin-1-yl]-[4-(3,5-dichloro-phenyl)-1-(2-methoxy-ethyl)-1H-indol-3-yl]-methanone hydrochloride]", "Ki": 164}, {"compound": "CCCn1cc(-c2cccc3c2c(C(=O)N2CCC(c4cc(CN)ccc4F)CC2)cn3CCOC)cn1", "note": "[Example 67, [4-(5-Aminomethyl-2-fluoro-phenyl)-piperidin-1-yl]-[1-(2-methoxy-ethyl)-4-(1-propyl-1H-pyrazol-4-yl)-1H-indol-3-yl]-methanone hydrochloride]", "Ki": 12}, {"compound": "COCCn1cc(C(=O)N2CCC(c3cc(CN)ccc3F)CC2)c2c(OC(C)C)cccc21", "note": "[Example 68, [4-(5-Aminomethyl-2-fluoro-phenyl)-piperidin-1-yl]-[4-isopropoxy-1-(2-methoxy-ethyl)-1H-indol-3-yl]-methanone hydrochloride]", "Ki": 35}, {"compound": "COCCn1cc(C(=O)N2CCC(c3cc(CN)ccc3F)CC2)c2c(-c3ccc(OC(F)(F)F)cc3)cccc21", "note": "[Example 69, [4-(5-Aminomethyl-2-fluoro-phenyl)-piperidin-1-yl]-[1-(2-methoxy-ethyl)-4-(4-trifluoromethoxy-phenyl)-1H-indol-3-yl]-methanone hydrochloride]", "Ki": 400}, {"compound": "COCCn1cc(C(=O)N2CCC(c3cc(CN)ccc3F)CC2)c2c(-c3ccc(OC)cc3)cccc21", "note": "[Example 70, [4-(5-Aminomethyl-2-fluoro-phenyl)-piperidin-1-yl]-[1-(2-methoxy-ethyl)-4-(4-methoxy-phenyl)-1H-indol-3-yl]-methanone hydrochloride]", "Ki": 21}, {"compound": "COCCn1cc(C(=O)N2CCC(c3cc(CN)ccc3F)CC2)c2c(-c3ccc(F)cc3)cccc21", "note": "[Example 71, [4-(5-Aminomethyl-2-fluoro-phenyl)-piperidin-1-yl]-[4-(4-fluoro-phenyl)-1-(2-methoxy-ethyl)-1H-indol-3-yl]-methanone hydrochloride]", "Ki": 49}, {"compound": "COCCn1cc(C(=O)N2CCC(c3cc(CN)ccc3F)CC2)c2c(-c3cccc(O)c3)cccc21", "note": "[Example 72, [4-(5-Aminomethyl-2-fluoro-phenyl)-piperidin-1-yl]-[4-(3-hydroxy-phenyl)-1-(2-methoxy-ethyl)-1H-indol-3-yl]-methanone hydrochloride]", "Ki": 13}]}]}
